Literature values as cited in patent publication US12564552B2, “Oral product with a basic amine and an ion pairing agent” (NICOVENTURES TRADING LIMITED, priority 2021, dated 2026).

Legend:
[1] = not given; remark: listed apart in the source
human buccal tissue = conditions: nicotine solution pH=6 vs pH 8.1, perfusion cell, Adrian et al.

Compound	solubility in water	solubility in fats and alcohols	chemical stability (isolated, isomerizes to trans-bixin (β-bixin))	log Ka1 (pyridine ring nitrogen) ([1]; pyridine ring nitrogen)	log Ka2 (pyrrolidine ring nitrogen) ([1]; pyrrolidine ring nitrogen)	factor by which diffusion rate is reduced at pH 6 relative to pH 8.1 (human buccal tissue)
CC(/C=C/C=C(C)/C=C/C(=O)O)=C\C=C\C=C(C)\C=C\C=C(C)\C=C\C(=O)O (stereo in doubt) [norbixin, (2E,4E,6E,8E,10E,12E,14E,16E,18E)-4,8,13,17-tetramethylicosa-2,4,6,8,10,12,14,16,18-nonaenedioic acid]	water-soluble	–	–	–	–	–
COC(=O)/C=C/C(C)=C\C=C\C(C)=C\C=C\C=C(C)\C=C\C=C(C)\C=C\C(=O)O [bixin, (2E,4E,6E,8E,10E,12E,14E,16Z,18E)-20-methoxy-4,8,13,17-tetramethyl-20-oxoicosa-2,4,6,8,10,12,14,16,18-nonaenoic acid]	insoluble in water	soluble in fats and alcohols	chemically unstable when isolated	–	–	–
CN1CCCC1c1cccnc1 (stereo not shown) [nicotine]	–	–	–	3.41	8.02	~7
